# Measurements as given in PubChem BioAssay (NCI).
#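 In this assay, cells in 96-well plates receive the compound at five concentrations for 48 hours. Endpoints are linearly interpolated between the surrounding concentrations. GI50: concentration for 50% inhibition of growth. TGI marks complete inhibition of growth.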
# Tests used:
# Test in all cases: NCI-60 cell line screen, 48 h
# PC-3 prostate = test system: PC-3 prostate
# NCI/ADR-RES ovarian = test system: NCI/ADR-RES ovarian
# MCF7 breast = test system: MCF7 breast
# UO-31 renal = test system: UO-31 renal
# SK-MEL-2 melanoma = test system: SK-MEL-2 melanoma
# LOX IMVI melanoma = test system: LOX IMVI melanoma
# HCC-2998 colon = test system: HCC-2998 colon
# OVCAR-4 ovarian = test system: OVCAR-4 ovarian
# BT-549 breast = test system: BT-549 breast
# HS 578T breast = test system: HS 578T breast
SMILES,GI50 (PC-3 prostate),TGI (PC-3 prostate),GI50 (NCI/ADR-RES ovarian),TGI (NCI/ADR-RES ovarian),GI50 (MCF7 breast),TGI (MCF7 breast),GI50 (UO-31 renal),TGI (UO-31 renal),GI50 (SK-MEL-2 melanoma),TGI (SK-MEL-2 melanoma),GI50 (LOX IMVI melanoma),TGI (LOX IMVI melanoma),GI50 (HCC-2998 colon),TGI (HCC-2998 colon),GI50 (OVCAR-4 ovarian),TGI (OVCAR-4 ovarian),GI50 (BT-549 breast),TGI (BT-549 breast),TGI (HS 578T breast),GI50 (HS 578T breast)
COc1cc(NC(N)=NCCC(C)(C)Oc2ccc(C(F)(F)F)cc2)ncc1C#N,1420 nM,2.82 µM,1.66 µM,3.24 µM,1610 nM,3.18 µM,1480 nM,2.85 µM,1790 nM,3.27 µM,1.6 µM,3.01 µM,1.58 µM,3.01 µM,1.58 µM,3.07 µM,1.81 µM,3.38 µM,,
Cc1ccc(S(=O)(=O)NC(=O)C2C(=O)CC3(CCCCC3)CC2=O)cc1,,81.3 µM,,37.9 µM,,55.7 µM,,60.4 µM,,,,> 100 µM,,,,> 100 µM,,75 µM,> 100 µM,
COc1ccc(S(=O)(=O)N2CC(C)(C)CN(S(=O)(=O)c3ccc(OC)cc3)C2C(=O)NO)cc1,> 20000 nM,> 20 µM,> 20 µM,> 20 µM,> 20000 nM,> 20 µM,> 11500 nM,> 20 µM,> 20000 nM,> 20 µM,> 11.1 µM,> 20 µM,,,> 20 µM,> 20 µM,> 20 µM,> 20 µM,> 20 µM,> 6.77 µM
C=C1C(=O)O[C@@H]2C[C@@H](C)[C@@H]3C=CC(=O)[C@@]3(C)[C@@H](OC(=O)CC(=O)O[C@H]3[C@@H]4C(=C)C(=O)O[C@@H]4C[C@@H](C)[C@@H]4C=CC(=O)[C@]43C)[C@H]12,,0.436 µM,,,,0.21 µM,,0.271 µM,,0.224 µM,,0.069 µM,,0.303 µM,,0.14 µM,,0.161 µM,,
Fc1ccc2[nH]cc(-c3nonc3-c3c[nH]c4ccc(Br)cc34)c2c1,2050 nM,7.68 µM,2.87 µM,10.1 µM,2190 nM,5.66 µM,1390 nM,4.36 µM,2230 nM,5.13 µM,,,1.89 µM,3.83 µM,3.45 µM,18.5 µM,3.38 µM,15 µM,5.96 µM,2.27 µM
Nc1ccccc1C(=O)CC1OC(=O)c2ccccc21 (stereo not given),,> 100 µM,,> 100 µM,,> 100 µM,,> 100 µM,,88 µM,,> 100 µM,,,,> 100 µM,,90.5 µM,> 100 µM,
Cc1cc(S(=O)(=O)Nc2nc3cscc3c(=O)n2Cc2ccccc2)c(S)cc1Cl,35600 nM,> 100 µM,53.4 µM,> 100 µM,39100 nM,> 100 µM,51800 nM,> 100 µM,,,23.2 µM,51.6 µM,18.9 µM,68.5 µM,> 100 µM,> 100 µM,81.1 µM,> 100 µM,> 100 µM,65.6 µM
Cc1ccc(C)c2c1C(O)(C#Cc1ccccc1)c1ccccc1C2(O)C#Cc1ccccc1 (stereo not given),2420 nM,> 23.7 µM,3.63 µM,> 28.9 µM,2470 nM,> 100 µM,1890 nM,6.83 µM,2980 nM,11.5 µM,3.44 µM,> 64.2 µM,5.56 µM,> 100 µM,3.85 µM,> 100 µM,,,> 100 µM,3.4 µM
